Experiments:
[1] = in ethanol; cited from earlier work
[2] = UV-Vis absorbance spectra in variable pH PBS buffer solutions; assay type: physicochemical; settings: pH 7.4, 7.0, 6.8, 6.5
Experimental: Substantial differences were observed between pH 7.4 and pH 7.0 (B), pH 7.0 and 6.8 (C). A small additional peak was observed between pH 6.8 and 6.5 (D). This initial identification of the ability of compound (Ia) to modulate absorbance spectra was solely dependent upon variation in pH as changes in absorbance in various light conditions, various levels of 02, and various cell culture medium (with and without phenol red) (data not shown) were also tested.

[3] = tested on: orthotopic pancreatic tumor; test: MSOT imaging of compound accumulation in mice with orthotopic pancreatic tumor; assay type: in vivo; settings: SCID mice, iv tail vein, 100 nM in PBS pH 7.4, 100 μl; after 2 h
Experimental: Preliminary evaluation of compound (Ia) accumulation within mice was conducted. A matrigel plug containing surgicel mesh and fibroblast was injected subcutaneously to stimulate non-malignant fibrotic tissue two weeks prior to orthotopic tumor implantation in 3 SCID mice. Mice were anesthesized using 1.5% isoflurane and a gas mixture of 0.9 L medical air and 0.1 L 02 to detect tissue hypoxia. Because areas of tissue hypoxia will also have acidic extracellular pH, tissue hypoxia served as an additional acidic extracellular pH (pHe) control. One week post tumor implantation mice were imaged using MSOT to obtain a baseline prior to iv tail vein injection of compound (Ia) at (100 nM in PBS pH 7.4) in 100 μl total volume.

[4] = Absorption spectra in the presence of ions and reactive cellular products at pH 7.4; assay type: physicochemical; settings: Na+, K+, Ca2+, Fe2+, Mg2+, Zn2+, Fe3+ chloride salts, H2O2, GSH, cysteine
Experimental: Since compound (Ia) was designed to spectrally alter based upon H^+ protonation, compound (Ia) was also evaluated in the presence of de-ionized water, phosphate buffer saline, and/or other ions which are present in living organisms (Na^+, K^+, Ca^2+, Fe^2+, Mg^2+, Zn^2+, Fe^3+ and Fe^2+ as chloride salts), and other highly reactive cellular products (H2O2, glutathione (GSH), cysteine) at pH 7.4. […] With the establishment that modulation of spectral absorption corresponded to H^+ without influence of other ions, compound (Ia) was further evaluated as a potential optoacoustic agent.

[5] = Quantum yield and spectral properties in buffered solutions, by comparison with rhodamine; assay type: physicochemical; settings: for ΦF (quantum yield): vs rhodamine
Experimental: The quantum yield of compound (Ia) under acidic (pH 6.0), neutral (7.0), and basic (pH 8.0) buffered solutions were calculated by comparison with rhodamine (ΦR=0.95 in ethanol), where ΦF is the quantum yield.

[6] = pH 6.0 (acidic) buffered solution
[7] = pH 7.0 (neutral) buffered solution
[8] = pH 8.0 (basic) buffered solution

Molecule	ΦR (quantum yield of reference) [1]	pH dependence of absorbance spectra (UV-Vis) [2]	accumulation detected by MSOT [3]	change of absorption spectra in the presence of other ions and reactive cellular products [4]	Absmax [5, 6] [nm]	Emmax [5, 6] [nm]	ΦF (quantum yield) [5, 6]	Absmax [5, 7] [nm]	Emmax [5, 7] [nm]	ΦF (quantum yield) [5, 7]	Absmax [5, 8] [nm]	Emmax [5, 8] [nm]	ΦF (quantum yield) [5, 8]
rhodamine	0.95	–	–	–	–	–	–	–	–	–	–	–	–
C[N+]1=C(/C=C/C2=C3Oc4cc(O)ccc4C=C3CCC2)C(C)(C)c2c1ccc1c2ccc2cc(Cl)ccc21 [compound (Ia)]	–	absorbance spectra modulation corresponding with variable pH PBS buffer solutions	Pancreatic tumor specific accumulation	did not significantly alter	652	694	0.18	704	745	0.22	765	810	0.23

Source: patent US20210309645A1, “pH DEPENDENT PHOTOACOUSTIC COMPOUNDS AND APPLICATIONS THEREOF” (Wake Forest University, priority 2018, published 2021)
